# pEC50: −log10 of the molar value.
# Legend:
# Type in all cases: cell-based
# [1] = target: T1, Peroxisome proliferator-activated receptor gamma (Homo sapiens, UniProt P37231); test: Agonist activity at human PPARgamma transfected in african green monkey COS7 cells assessed transactivation incubated for 16 hrs by luciferase assay
# T1 sequence (P37231 whole entry): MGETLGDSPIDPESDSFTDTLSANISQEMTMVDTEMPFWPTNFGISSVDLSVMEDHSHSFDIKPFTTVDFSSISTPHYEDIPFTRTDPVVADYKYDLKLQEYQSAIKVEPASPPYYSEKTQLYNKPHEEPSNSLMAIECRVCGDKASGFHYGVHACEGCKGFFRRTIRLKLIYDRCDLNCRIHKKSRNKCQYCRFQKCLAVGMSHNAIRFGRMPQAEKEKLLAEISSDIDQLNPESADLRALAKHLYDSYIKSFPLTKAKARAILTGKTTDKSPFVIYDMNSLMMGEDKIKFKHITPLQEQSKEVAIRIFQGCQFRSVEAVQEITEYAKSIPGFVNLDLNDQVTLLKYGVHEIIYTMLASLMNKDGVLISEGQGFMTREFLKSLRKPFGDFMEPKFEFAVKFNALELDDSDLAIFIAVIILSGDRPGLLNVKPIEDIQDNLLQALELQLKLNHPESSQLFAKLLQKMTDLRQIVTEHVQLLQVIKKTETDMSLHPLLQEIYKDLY
# [2] = target: Peroxisome proliferator-activated receptor delta (Homo sapiens, UniProt Q03181); test: Agonist activity at human PPARdelta transfected in african green monkey COS7 cells assessed transactivation incubated for 16 hrs by luciferase assay
# Sequence of Peroxisome proliferator-activated receptor delta (Q03181 whole entry): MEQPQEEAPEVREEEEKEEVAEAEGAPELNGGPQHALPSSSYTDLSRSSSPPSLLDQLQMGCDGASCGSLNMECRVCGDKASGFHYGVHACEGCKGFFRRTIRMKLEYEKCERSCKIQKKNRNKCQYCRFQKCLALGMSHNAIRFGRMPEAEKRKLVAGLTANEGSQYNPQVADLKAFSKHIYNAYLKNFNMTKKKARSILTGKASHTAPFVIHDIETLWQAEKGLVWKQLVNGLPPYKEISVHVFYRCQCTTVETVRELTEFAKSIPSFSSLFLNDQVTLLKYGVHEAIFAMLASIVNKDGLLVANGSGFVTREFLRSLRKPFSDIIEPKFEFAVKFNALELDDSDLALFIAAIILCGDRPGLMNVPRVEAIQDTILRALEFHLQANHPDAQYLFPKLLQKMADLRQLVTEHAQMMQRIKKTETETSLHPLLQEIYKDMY
# [3] = target: T2, Peroxisome proliferator-activated receptor alpha (Homo sapiens, UniProt Q07869); test: Agonist activity at human PPARalpha transfected in african green monkey COS7 cells assessed transactivation incubated for 16 hrs by luciferase assay
# T2 sequence (Q07869 whole entry): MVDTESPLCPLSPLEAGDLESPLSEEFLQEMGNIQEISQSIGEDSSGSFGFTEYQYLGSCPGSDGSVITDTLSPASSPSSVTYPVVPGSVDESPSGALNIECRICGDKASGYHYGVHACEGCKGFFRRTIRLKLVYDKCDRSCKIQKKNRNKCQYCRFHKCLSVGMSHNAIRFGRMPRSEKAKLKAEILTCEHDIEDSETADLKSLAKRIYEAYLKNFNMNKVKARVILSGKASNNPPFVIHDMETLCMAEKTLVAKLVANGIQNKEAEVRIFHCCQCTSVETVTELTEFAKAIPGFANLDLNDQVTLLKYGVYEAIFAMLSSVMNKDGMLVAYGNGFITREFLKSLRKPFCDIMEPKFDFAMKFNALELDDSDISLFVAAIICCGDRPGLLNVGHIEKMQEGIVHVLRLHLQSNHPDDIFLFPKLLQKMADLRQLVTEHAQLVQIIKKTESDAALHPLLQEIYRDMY
SMILES,pEC50 [1],pEC50 [2],pEC50 [3]
Cc1cc(CN2C(=O)CN(c3ccc(C(F)(F)F)cc3)C2=O)cc(C)c1OC(C)C(=O)O (stereo unspecified),< 5.30,8.08,–
Cc1cc(CN2C(=O)CN(c3ccccc3C(F)(F)F)C2=O)cc(C)c1OC(C)(C)C(=O)O,< 5.30,–,< 5.30
CSc1ccc(N2CC(=O)N(Cc3cc(C)c(OC(C)(C)C(=O)O)c(C)c3)C2=O)cc1,5.93,8.09,8.57
Cc1cc(CN2C(=O)CN(c3ccc(OC(F)(F)F)cc3)C2=O)cc(C)c1OC(C)(C)C(=O)O,5.86,–,–
Cc1cc(N2C(=O)CN(c3ccc(C(F)(F)F)cc3)C2=O)cc(C)c1OC(C)(C)C(=O)O,< 5.30,–,–
Cc1cc(CCN2C(=O)CN(c3ccc(C(F)(F)F)cc3)C2=O)cc(C)c1OC(C)(C)C(=O)O,6.56,–,–
Cc1cc(Cn2ncn(-c3ccc(OC(F)(F)F)cc3)c2=O)cc(C)c1OC(C)(C)C(=O)O,–,–,8.13
